According to patent US20240327415A1, “Multicomponent Complexes, Including Salts, Crystalline Forms, and Hydrates and Solvates of ENT1 Inhibitors” (iTeos Belgium SA, priority 2023, published 2024):
Structures can show the parent of a compound that is named as a salt.

Assay: solid form screen of Compound 1 di(hydrogen sulfate), XRPD damp and dried (Example 1)
Type: physicochemical
Description: Example 1—Solid Form Screen of Compound 1 Di(Hydrogen Sulfate): Amorphous Compound 1 di(hydrogen sulfate) (made in accordance with Example 7) was prepared and then subject to various crystallization techniques—temperature cycling, evaporation, crash cooling, solvent drop grinding, anti-solvent addition—each of which is described in more detail below. In addition, a reactive crystallization experiment was also conducted on Compound 1, which is a free base.
Temperature Cycling: Approximately 20 mg of Amorphous Compound 1 di(hydrogen sulfate) was added to 24×1.5 mL screw cap vials. Into each vial, the appropriate solvent system was added in 50 μL aliquots in an attempt to form slurries at 40° C. When the addition was completed, the samples were temperature-cycled between 40° C. and 5° C., using 0.1° C./min ramp and 1 hr hold between steps. After about 24 hours of cycling, anti-solvent addition at 40° C. was carried out on samples that were clear solutions. Temperature cycling was continued for all samples for a total of 48 hours. After 48 hours of cycling, any solids present in the samples were isolated via centrifugation and analyzed damp by XRPD to assess the polymorphic form.
Evaporation: Solutions of Amorphous Compound 1 di(hydrogen sulfate) were prepared in different solvent systems. […] The solutions were then left open to allow the solvents to evaporate at ambient. Solids observed post-evaporation were analyzed by XRPD.
Crash Cooling: Solutions of Amorphous Compound 1 di(hydrogen sulfate) were prepared in different solvent systems. […] The solutions were placed in a refrigerator to crash-cool the samples to about 5° C. for 48 hours. Solids observed at this point were analyzed by XRPD. The rest of the samples where no solids were observed were placed in a freezer to allow the samples to crash-cool further to about −20° C. After about 48 hours in the freezer, samples with solids were analyzed by XRPD. For samples where solids were still not observed, anti-solvent addition was carried out at 5° C., and the samples returned to the freezer. After 4 days in the freezer post-ASA, any solids present were analyzed by XRPD.
Solvent Drop Grinding: 15-20 mg of Amorphous Compound 1 di(hydrogen sulfate) was added to 24×2 mL bead mill tubes. Into each tube, 5 μL of the appropriate solvent system was added at ambient. Two small stainless-steel beads were placed in each tube, and the samples were milled using the following program: (1) Speed=5000 rpm; (2) Cycle=10×90 s; (3) Pause=10 s; (4) Repeat=duplicate. For samples where dissolution was suspected during the milling, additional amorphous material was added, and the milling program repeated. When the milling program was completed, the residual solids were analyzed by XRPD.
Anti-solvent Addition: 20-25 mg of Amorphous Compound 1 di(hydrogen sulfate) was added to 24×1.5 mL screw cap vials. Into each vial, 100 μL of the appropriate solvent system was added at 25° C. to form solutions. Where complete dissolution was not observed, an additional 400 μL of solvent was added and the samples were stirred at 50° C. to allow further dissolution. The mother liquors of these samples were needle-filtered into a new set of vials. To all the solutions, anti-solvent addition was carried out at 25° C. Where sufficient precipitation was observed post-ASA, these were isolated and analyzed by XRPD. Where thin slurries or clear solutions were observed post-ASA, these were cooled to 5° C. at 0.1° C./min and stirred at 5° C. for ca 18 h. Any solids present were isolated and analyzed by XRPD.
Reactive Crystallization: 15-20 mg of Compound 1 was added to 18×1.5 mL screw cap vials. Into each vial, 100 μL of the appropriate solvent system was added at 40° C. 2.05 mole equiv. of H2SO4 was also added to the vials as solutions in 100 μL of the respective solvent systems. The samples were stirred at 40° C. for another approximately 30 mins, cooled to 5° C. at 0.1° C./min and left stirring at 5° C. for about 18 h. […]

COc1cc(C(=O)O[C@@H]2CCCOc3cc(cc(OC)c3OC)C(=O)NCCCN3CCCN(CC2)CC3)cc(OC)c1OC [Compound 1 di(hydrogen sulfate)]
XRPD (Damp) Evaporation (1,4-Dioxane): 2, PC | XRPD (Damp) Temp cycling (1,4-Dioxane): 2, PC | XRPD (Dried) Anti-solvent addition (1,4-Dioxane): Am | XRPD (Dried) Evaporation (1,4-Dioxane): 2, PC | XRPD (Dried) Solvent drop grinding (1,4-Dioxane): Am | XRPD (Dried) Temp cycling (1,4-Dioxane): 2, PC | XRPD (Damp) Anti-solvent addition (1-Propanol): 2, PC | XRPD (Damp) Solvent drop grinding (1-Propanol): 2, PC | XRPD (Dried) Anti-solvent addition (1-Propanol): 2, PC | XRPD (Dried) Temp cycling (1-Propanol): Am | XRPD (Damp) Evaporation (2-Methyl THF): 2, PC | XRPD (Dried) Anti-solvent addition (2-Methyl THF): Am | XRPD (Dried) Evaporation (2-Methyl THF): 2, PC | XRPD (Dried) Solvent drop grinding (2-Methyl THF): Am | XRPD (Dried) Temp cycling (2-Methyl THF): Am | XRPD (Damp) Evaporation (2-Propanol): 2, PC | XRPD (Dried) Anti-solvent addition (2-Propanol): Am | XRPD (Dried) Reactive cryst. (2-Propanol): Am | XRPD (Dried) Temp cycling (2-Propanol): Am | XRPD (Damp) Evaporation (2-propanol:water (50:50% v/v)): 2, PC | XRPD (Dried) Evaporation (2-propanol:water (50:50% v/v)): 2, PC | XRPD (Damp) Crash cooling (2-propanol:water (75:25% v/v)): 2, PO | XRPD (Damp) Reactive cryst. (2-propanol:water (75:25% v/v)): 2, PC | XRPD (Dried) Crash cooling (2-propanol:water (75:25% v/v)): 2, PO | XRPD (Damp) Evaporation (Acetone): 2, PC | XRPD (Damp) Temp cycling (Acetone): 2, PC | XRPD (Dried) Anti-solvent addition (Acetone): Am | XRPD (Dried) Evaporation (Acetone): 2, PC | XRPD (Dried) Solvent drop grinding (Acetone): Am | XRPD (Dried) Temp cycling (Acetone): 2, PC | XRPD (Damp) Evaporation (Acetonitrile): 6, PC | XRPD (Dried) Evaporation (Acetonitrile): 6+, PC | XRPD (Dried) Solvent drop grinding (DCM): Am | XRPD (Dried) Anti-solvent addition (DMF): Am | XRPD (Dried) Solvent drop grinding (DMF): Am | XRPD (Dried) Anti-solvent addition (DMSO): Am | XRPD (Dried) Solvent drop grinding (DMSO): Am | XRPD (Dried) Evaporation (Ethanol:water (90:10% v/v)): 2, PC | XRPD (Dried) Reactive cryst. (Ethyl Acetate): Am | XRPD (Dried) Solvent drop grinding (Ethyl Acetate): Am | XRPD (Dried) Temp cycling (Ethyl Acetate): Am | XRPD (Dried) Solvent drop grinding (Isopropyl Acetate): Am | XRPD (Dried) Temp cycling (Isopropyl Acetate): Am | XRPD (Damp) Temp cycling (MEK): 2, PC | XRPD (Dried) Solvent drop grinding (MEK): Am | XRPD (Dried) Temp cycling (MEK): 2, PC | XRPD (Damp) Solvent drop grinding (Methanol): 2, PC | XRPD (Dried) Reactive cryst. (Methanol): Am | XRPD (Dried) Solvent drop grinding (Methanol): 2, PC | XRPD (Dried) Temp cycling (Methanol): Am | XRPD (Dried) Reactive cryst. (MiBK): Am | XRPD (Dried) Solvent drop grinding (MiBK): Am | XRPD (Dried) Temp cycling (MiBK): Am | XRPD (Damp) Evaporation (THF): 2, PC | XRPD (Dried) Evaporation (THF): 2, PC | XRPD (Dried) Solvent drop grinding (THF): Am | XRPD (Dried) Solvent drop grinding (Toluene): Am | XRPD (Dried) Temp cycling (Toluene): Am
